The values below are quoted from earlier work in PMC12311865, “In Vitro Evaluation of the Potential Interactions of Zearalenone-14-sulfate and Zearalenone-14-glucuronide with Human Cytochrome P450 Enzymes, Organic Anion Transporting Polypeptides, and ATP-Binding Cassette Multidrug Transporters” (ACS Omega, 2025).

Data set [1] addresses T1, OATP2B1 (Homo sapiens, UniProt O94956).
T1 construct: expressed in transfected cells; host or cells: A431
T1 sequence (O94956 1-709): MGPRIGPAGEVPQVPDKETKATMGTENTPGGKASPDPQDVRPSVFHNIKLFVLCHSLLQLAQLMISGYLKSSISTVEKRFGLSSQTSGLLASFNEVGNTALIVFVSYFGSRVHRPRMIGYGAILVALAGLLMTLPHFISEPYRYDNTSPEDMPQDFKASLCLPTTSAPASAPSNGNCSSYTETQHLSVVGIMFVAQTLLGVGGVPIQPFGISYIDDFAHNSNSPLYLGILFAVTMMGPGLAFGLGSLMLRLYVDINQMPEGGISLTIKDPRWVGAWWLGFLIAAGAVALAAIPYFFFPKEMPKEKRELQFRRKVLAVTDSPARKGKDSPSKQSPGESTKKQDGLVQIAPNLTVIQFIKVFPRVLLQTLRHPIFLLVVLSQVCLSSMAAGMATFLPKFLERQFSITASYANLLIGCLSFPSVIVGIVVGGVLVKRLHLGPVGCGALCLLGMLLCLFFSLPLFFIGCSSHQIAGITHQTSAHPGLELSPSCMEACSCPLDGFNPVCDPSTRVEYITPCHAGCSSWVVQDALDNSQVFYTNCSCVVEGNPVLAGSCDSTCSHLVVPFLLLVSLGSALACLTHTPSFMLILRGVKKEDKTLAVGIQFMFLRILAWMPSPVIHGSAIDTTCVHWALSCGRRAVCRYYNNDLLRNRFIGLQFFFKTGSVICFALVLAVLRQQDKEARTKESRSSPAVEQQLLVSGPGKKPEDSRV
More on the design: method as in earlier report. The note with it: same experimental model; ref earlier report; cited from earlier work.

Data set [2] addresses T2, CYP3A4 (Homo sapiens, UniProt P08684).
T2 construct: purchased Merck
On the set-up: method as in our previous study. The note with it: ref our previous study; cited from earlier work.

The target of data set [3] is T3, OATP1A2 (Homo sapiens, UniProt P46721).
T3 construct: expressed in transfected cells; host or cells: A431
T3 sequence (P46721 1-670): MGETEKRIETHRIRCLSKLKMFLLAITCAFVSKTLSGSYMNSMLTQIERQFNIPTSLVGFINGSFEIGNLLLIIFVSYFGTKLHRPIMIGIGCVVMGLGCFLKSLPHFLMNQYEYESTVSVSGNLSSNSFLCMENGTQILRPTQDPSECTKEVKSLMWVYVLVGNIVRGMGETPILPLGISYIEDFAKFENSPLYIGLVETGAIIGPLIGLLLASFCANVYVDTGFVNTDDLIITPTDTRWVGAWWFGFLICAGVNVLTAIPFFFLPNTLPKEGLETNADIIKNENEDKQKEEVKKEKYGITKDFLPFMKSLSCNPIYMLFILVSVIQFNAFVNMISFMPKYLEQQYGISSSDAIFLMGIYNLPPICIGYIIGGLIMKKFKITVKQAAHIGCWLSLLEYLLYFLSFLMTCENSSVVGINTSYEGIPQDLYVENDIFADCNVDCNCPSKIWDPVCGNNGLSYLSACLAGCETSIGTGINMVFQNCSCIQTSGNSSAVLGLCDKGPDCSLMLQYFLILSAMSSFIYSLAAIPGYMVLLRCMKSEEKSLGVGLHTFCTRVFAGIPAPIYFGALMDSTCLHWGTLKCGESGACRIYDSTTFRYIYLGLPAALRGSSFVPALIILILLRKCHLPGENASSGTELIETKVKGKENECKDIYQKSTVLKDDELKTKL
On the set-up: method as in earlier report. Conditions: same experimental model; ref earlier report; cited from earlier work.

Data set [4] deals with T4, CYP1A2 (Homo sapiens, UniProt P05177).
T4 sequence (P05177 1-516): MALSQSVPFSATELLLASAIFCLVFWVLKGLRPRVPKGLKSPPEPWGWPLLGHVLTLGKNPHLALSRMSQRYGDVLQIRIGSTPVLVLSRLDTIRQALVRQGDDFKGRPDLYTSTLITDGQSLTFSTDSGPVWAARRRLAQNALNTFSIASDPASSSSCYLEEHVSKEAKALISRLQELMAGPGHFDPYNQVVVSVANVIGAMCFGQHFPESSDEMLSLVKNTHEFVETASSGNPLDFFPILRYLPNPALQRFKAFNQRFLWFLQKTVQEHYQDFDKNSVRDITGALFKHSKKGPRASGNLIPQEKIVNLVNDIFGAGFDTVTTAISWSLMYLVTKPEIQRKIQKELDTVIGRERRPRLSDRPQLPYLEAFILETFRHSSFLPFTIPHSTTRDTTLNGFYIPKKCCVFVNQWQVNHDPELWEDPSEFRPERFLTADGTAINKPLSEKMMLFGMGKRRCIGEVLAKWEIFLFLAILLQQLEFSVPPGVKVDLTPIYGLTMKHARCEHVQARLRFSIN
More on the design: purchased Abcam ab211075; method as in our previous study. The note with it: ref our previous study; cited from earlier work.

Data set [5] deals with T5, CYP2C9 (Homo sapiens, UniProt P11712).
T5 construct: purchased Merck
On the set-up: method as in our previous study. Conditions: ref our previous study; cited from earlier work.

T5 sequence (P11712 whole entry): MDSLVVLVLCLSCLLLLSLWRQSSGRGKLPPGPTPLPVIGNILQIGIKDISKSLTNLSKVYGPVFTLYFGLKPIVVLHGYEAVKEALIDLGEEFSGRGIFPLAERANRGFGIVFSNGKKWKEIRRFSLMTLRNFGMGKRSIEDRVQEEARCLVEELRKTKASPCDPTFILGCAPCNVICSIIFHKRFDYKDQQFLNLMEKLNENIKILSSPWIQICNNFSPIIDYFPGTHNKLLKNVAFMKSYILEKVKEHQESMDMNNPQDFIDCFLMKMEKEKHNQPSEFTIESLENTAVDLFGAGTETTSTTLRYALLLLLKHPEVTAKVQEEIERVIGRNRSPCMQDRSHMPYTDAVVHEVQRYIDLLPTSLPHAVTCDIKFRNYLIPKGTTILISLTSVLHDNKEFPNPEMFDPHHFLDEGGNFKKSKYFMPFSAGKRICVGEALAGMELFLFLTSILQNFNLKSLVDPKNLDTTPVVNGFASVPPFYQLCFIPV
T2 sequence (P08684 whole entry): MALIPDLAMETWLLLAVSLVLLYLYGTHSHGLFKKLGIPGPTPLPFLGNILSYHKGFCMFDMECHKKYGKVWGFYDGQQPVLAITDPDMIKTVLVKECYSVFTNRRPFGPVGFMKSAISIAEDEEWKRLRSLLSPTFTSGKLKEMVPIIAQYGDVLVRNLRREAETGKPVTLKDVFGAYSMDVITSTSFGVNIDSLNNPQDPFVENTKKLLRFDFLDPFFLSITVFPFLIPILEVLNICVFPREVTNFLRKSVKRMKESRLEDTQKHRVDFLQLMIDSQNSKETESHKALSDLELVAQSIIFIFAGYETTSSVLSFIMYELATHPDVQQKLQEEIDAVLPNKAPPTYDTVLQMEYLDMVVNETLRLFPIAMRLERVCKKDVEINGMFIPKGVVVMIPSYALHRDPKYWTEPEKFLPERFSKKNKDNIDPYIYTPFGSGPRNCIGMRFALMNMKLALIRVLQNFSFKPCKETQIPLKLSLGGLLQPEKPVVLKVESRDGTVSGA

By IC50 is commonly meant the point on the concentration scale where inhibition reaches its midpoint. For `C[C@H]1CCCC(=O)CCC/C=C/c2cc(O)cc(O)c2C(=O)O1` [ZEN, Zearalenone], the IC50 was 2300 nM in data set [1]; 2000 nM in data set [2]; 2300 nM in data set [3]; 7800 nM in data set [4]; 9800 nM in data set [5].
